The test system of data set [1] is Staphylococcus aureus ATCC 29213. The experiment in a line: MIC by microbroth dilution, S. aureus 29213. It is filed as cell-based. As to conditions: for MIC S1 = S. aureus 29213: 24 h 37° C.; for MIC: Staphylococcus aureus, ATCC29213, 24 h 37° C., read-out: MIC S1 = S. aureus 29213. The method, then: (§1) Minimum Inhibitory Concentration (MIC) Determination:
(§2) Bacteria used in this study were Staphylococcus aureus ATCC 29213, Escherichia coli ATCC 25922, Escherichia coli K12, Staphylococcus aureus ATCC 33591, Pseudomonas aeruginosa ATCC 27853, and Enterococcus faecalis ATCC 29212. All compounds were tested by the microbroth dilution method following Clinical and Laboratory Standards Institute guidelines. Briefly, Mueller-Hinton broth (Difco Laboratories, Becton Dickinson) was inoculated with each organism and incubated at 37° C. with shaking to establish logarithmic growth. Following incubation, each culture was pelleted by centrifugation (3,500×g for 5 min) and resuspended in 0.85% sterile saline solution to an optical density at 625 nm of 0.1. Samples were tested in triplicate using 96 well microplates (Corning Costar Corp. Cambridge, Mass.), yielding final bacterial concentrations of 5×10^5 CFU/mL, and incubated for 24 h at 37° C. Following incubation, optical densities of each well were determined with a μQuant microplate spectrophotometer (BioTek Instruments, Inc., Winooski, Vt.) at 625 nm.
(In general: Dilution methods test growth across graded concentrations, often in twofold steps.)

Another data set relates to DU 145 cell line. The experiment in a line: Cytotoxicity, sulforhodamine B assay. Type of data set: cell-based. As to conditions: for IC50: 48 h treatment, SRB stain, read-out: IC50 against DU-145. The method, then: Cytotoxicity Experiments:
The DU 145 cell line was cultured according to ATCC protocols. Cells were harvested using trypsin-EDTA solution and counted using trypan blue exclusion. Cells were seeded at a volume of 100 μl/well in the wells of tissue culture treated 96 well plates at a density of […] per well. Seeded 96 well plates were returned to incubator (37° C., 5% CO2) for twenty-four hours to resume exponential growth.
Cell lines were then treated with 100 μl of each test compound or cisplatin in triplicate. The final concentrations of each treatment were: 20, 10, 5, 2.5, 1.25, 0.625 and 0.0625 μM. Each plate also contained wells containing untreated cells and media only as controls. After receiving treatments, the 96 well plates were returned to incubator (37° C., 5% CO2) for forty-eight hours.
After forty-eight hours of treatment, the treated plates were fixed with trichloroacetic acid and stained with sulforhodamine B using a modified version of the protocol described by Skehan et al. In short, 50 μl of cold 80% TCA was added to each well, at a final concentration of 16% TCA, and plates were incubated at 4° C. for one hour. The media and TCA solution was discarded and plates were washed four times using room temperature tap water. Plates were allowed to air dry overnight. Plates were stained with the addition of 70 μl/well of […] SRB in 1% (v/v) acetic acid solution. Samples were stained for fifteen minutes and then stain was discarded. Plates were then washed four times with 1% (v/v) acetic acid solution to remove unbound stain and allowed to air dry overnight at room temperature. Finally, SRB stain was solubilized by adding 150 μl of 10 mM unbuffered Tris base to each well. The absorbance of each samples at 560 nm was recorded using a Tecan plate reader and the IC50 was determined using Origin 4.0 software. Each study was completed in duplicate.

Data set [2] has as its system Pseudomonas aeruginosa ATCC 27853. The experiment in a line: MIC by microbroth dilution, P. aeruginosa 27853. Type of data set: cell-based. As to conditions: for MIC S4 = P. aeruginosa 27853: 24 h 37° C.; for MIC: Pseudomonas aeruginosa, ATCC27853, 24 h 37° C., read-out: MIC S4 = P. aeruginosa 27853. As to the method: as §1, §2
The subject of data set [3] is Escherichia coli ATCC 25922. The experiment in a line: MIC by microbroth dilution, E. coli 25922. Type of data set: cell-based. As to conditions: for MIC S3 = E. coli 25922: 24 h 37° C.; for MIC: Escherichia coli, ATCC25922, 24 h 37° C., read-out: MIC S3 = E. coli 25922. The method, then:
as §1, §2

The test system of data set [4] is Staphylococcus aureus ATCC 33591. The experiment in a line: MIC by microbroth dilution, S. aureus 33591. Type of data set: cell-based. As to conditions: for MIC S2 = S. aureus 33591: 24 h 37° C.; for MIC: Staphylococcus aureus, ATCC33591, 24 h 37° C., read-out: MIC S2 = S. aureus 33591. The method, then:
as §1, §2

The target of data set [5] is E. coli DNA topoisomerase I (Escherichia coli, UniProt P06612). The experiment in a line: Inhibition assay against E. coli DNA topoisomerase I (plasmid relaxation, agarose gel). Type of data set: biochemical. To be noted: 6 nM enzyme; for IC50: supercoiled pBAD-GFPuv, 15 min 37° C., average of at least three determinations, read-out: IC50 ecTopo I; for concentration needed to completely inhibit the activities of E. coli DNA topoisomerase I: gel titration (FIG. 3A, 3B). As to the method:
Inhibition Assays Against E. coli DNA Topoisomerase I:
Inhibition assays were used to determine the activities of the newly synthesized compounds against E. coli DNA topoisomerase I. The reaction mixture (30 μl) contained 20 mM Tris-HCl at pH 7.9, 50 mM KAc, 10 mM Mg(Ac)2, 1 mM DTT, 1 μg/mL BSA, 150 ng of the supercoiled plasmid pBAD-GFPuv, 6 nM of E. coli topoisomerase I, and one of the compounds at a specified concentration that ranges from 0.5 to 45 μM. All components were assembled on ice and incubated for 15 min at 37° C. After the incubation, the reactions were terminated by extraction with an equal volume of phenol. The topological state of the DNA samples was analyzed with 1% agarose gel electrophoresis in 1×TAE buffer, pH 7.8. Following electrophoresis, the agarose gel was stained with Ethidium Bromide, destained, and photographed under UV light. The intensity of DNA topoisomers was determined using KODAK 1D Image Analysis Software. The percentage of (−) supercoiled DNA was calculated from a comparison of the intensity of the (−) supercoiled band with the total intensity of all DNA topoisomers. The IC50 was calculated as the amount of the drug for which 50% of the DNA was still in a (−) supercoiled state.

Data set [6] concerns the target human DNA topoisomerase II (Homo sapiens, UniProt P11388). The experiment in a line: Inhibition assay against human DNA topoisomerase II (plasmid relaxation, agarose gel). Type of data set: biochemical. To be noted: for inhibition of human DNA topoisomerase II activities at 50 μM: 50 μM compound; for IC50: 4 units enzyme, supercoiled pBAD-GFPuv, 30 min 37° C., read-out: IC50 hTopo II. The method, then: Inhibition Assays Against Human DNA Topoisomerase II:
The reaction mixture (25 μl) contained 20 mM Tris-HCl at pH 7.9, 50 mM KAc, 10 mM Mg(Ac)2, 1 mM DTT, 1 μg/mL BSA, 200 ng supercoiled plasmid pBAD-GFPuv, 4 units of Human topoisomerase II, and one of the compounds at a final concentration that ranges from 5 to 50 μM. All components were assembled on ice and incubated for 30 minutes at 37° C. After the incubation, the reactions were terminated by extraction with an equal volume of phenol. The topological state of the DNA samples was analyzed with 1% agarose gel electrophoresis in 1×TAE buffer, pH 7.8. Following electrophoresis, the agarose gel was stained with Ethidium Bromide, destained, and photographed under UV light. The intensity of DNA topoisomers was determined using KODAK 1D Image Analysis Software. The percentage of (−) supercoiled DNA was calculated from a comparison of the intensity of the (−) supercoiled band with the total intensity of all DNA topoisomers. The IC50 was calculated as the amount of the drug for which 50% of the DNA was in a (−) supercoiled state.

In brackets after ≈: the same amount, converted by molar mass. Like-named read-outs stand apart in the source and are kept apart here. Some results are limits rather than exact numbers.

human DNA topoisomerase II, sequence (P11388 whole entry): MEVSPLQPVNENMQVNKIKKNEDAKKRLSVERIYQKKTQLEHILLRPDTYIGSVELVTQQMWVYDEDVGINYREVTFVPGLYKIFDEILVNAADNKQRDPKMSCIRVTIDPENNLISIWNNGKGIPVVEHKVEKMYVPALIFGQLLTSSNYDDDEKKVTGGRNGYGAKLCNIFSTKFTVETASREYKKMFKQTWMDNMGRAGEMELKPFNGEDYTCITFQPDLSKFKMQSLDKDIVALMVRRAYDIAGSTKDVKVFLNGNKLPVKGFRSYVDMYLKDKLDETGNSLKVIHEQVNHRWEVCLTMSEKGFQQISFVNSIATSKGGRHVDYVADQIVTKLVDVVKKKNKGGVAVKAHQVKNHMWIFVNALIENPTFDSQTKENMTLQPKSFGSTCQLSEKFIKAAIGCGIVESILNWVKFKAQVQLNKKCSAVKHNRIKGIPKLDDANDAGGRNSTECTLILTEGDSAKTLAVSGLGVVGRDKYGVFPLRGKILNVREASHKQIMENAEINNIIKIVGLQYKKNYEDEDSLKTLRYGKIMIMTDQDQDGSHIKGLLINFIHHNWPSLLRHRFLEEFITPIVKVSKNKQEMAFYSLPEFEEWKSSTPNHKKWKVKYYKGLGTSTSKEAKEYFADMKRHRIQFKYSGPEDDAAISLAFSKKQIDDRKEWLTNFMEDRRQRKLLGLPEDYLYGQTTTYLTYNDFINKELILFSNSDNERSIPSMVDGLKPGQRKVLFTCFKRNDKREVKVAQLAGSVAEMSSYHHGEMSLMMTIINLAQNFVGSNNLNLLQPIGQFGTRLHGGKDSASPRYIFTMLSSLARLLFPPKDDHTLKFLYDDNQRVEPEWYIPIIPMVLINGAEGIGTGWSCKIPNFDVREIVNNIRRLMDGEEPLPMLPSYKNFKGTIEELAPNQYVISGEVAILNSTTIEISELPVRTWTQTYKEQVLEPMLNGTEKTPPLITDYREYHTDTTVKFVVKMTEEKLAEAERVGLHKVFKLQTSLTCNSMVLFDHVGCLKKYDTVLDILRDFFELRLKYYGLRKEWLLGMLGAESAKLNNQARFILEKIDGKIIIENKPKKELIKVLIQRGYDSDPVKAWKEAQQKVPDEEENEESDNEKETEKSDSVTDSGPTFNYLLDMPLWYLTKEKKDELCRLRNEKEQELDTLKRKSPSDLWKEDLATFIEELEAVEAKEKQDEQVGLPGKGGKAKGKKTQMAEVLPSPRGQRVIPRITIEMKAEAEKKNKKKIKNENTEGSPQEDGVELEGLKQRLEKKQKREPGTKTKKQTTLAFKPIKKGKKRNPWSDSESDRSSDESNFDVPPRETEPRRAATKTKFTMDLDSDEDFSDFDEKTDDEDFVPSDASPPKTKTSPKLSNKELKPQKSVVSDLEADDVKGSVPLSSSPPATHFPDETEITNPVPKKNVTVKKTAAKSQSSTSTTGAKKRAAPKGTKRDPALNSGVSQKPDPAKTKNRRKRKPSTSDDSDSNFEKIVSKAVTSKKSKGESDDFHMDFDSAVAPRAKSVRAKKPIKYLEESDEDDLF
E. coli DNA topoisomerase I, sequence (P06612 whole entry): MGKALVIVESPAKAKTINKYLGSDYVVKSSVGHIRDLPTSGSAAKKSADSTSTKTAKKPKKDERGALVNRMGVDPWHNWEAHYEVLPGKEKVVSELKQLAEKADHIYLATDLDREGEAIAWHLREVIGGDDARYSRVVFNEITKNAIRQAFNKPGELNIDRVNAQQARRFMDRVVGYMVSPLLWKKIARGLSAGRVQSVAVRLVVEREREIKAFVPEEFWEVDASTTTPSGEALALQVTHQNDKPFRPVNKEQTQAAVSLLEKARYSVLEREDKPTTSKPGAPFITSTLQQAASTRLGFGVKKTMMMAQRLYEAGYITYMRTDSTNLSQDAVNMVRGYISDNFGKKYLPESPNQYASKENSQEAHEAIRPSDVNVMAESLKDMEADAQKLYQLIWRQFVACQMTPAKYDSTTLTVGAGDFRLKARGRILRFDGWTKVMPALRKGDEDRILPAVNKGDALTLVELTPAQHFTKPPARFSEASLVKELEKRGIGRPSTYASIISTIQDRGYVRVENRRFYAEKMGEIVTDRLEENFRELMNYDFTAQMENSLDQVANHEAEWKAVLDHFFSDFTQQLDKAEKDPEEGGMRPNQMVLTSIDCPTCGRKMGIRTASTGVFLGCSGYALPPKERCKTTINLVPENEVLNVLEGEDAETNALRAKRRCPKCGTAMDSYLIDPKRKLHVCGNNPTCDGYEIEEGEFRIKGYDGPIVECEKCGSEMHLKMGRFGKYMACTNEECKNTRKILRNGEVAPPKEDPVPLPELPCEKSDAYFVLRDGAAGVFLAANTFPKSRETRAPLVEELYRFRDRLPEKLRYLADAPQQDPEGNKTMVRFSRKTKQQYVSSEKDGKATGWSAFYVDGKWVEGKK

Turning to `CCOc1ccc(-c2nc3ccc(-c4nc5ccc(N6CCN(C)CC6)cc5[nH]4)cc3[nH]2)cc1` [Hoechst 33342, reference compound], the “MIC S1 = S. aureus 29213” value in data set [1] lay within 2 to 4 µg/mL. Further, the IC50 (as a rule, the concentration that inhibits the measured activity by half) in the data set with DU 145 cell line was found to be 4.25 µM; in data set [5] it was 29.8 ± 2.75 µM. Moreover, the “MIC S4 = P. aeruginosa 27853” value in data set [2] stood at 16 µg/mL (≈ 35.4 µM). Also, in data set [3], the “MIC S3 = E. coli 25922” value was in the range of 8 to 16 µg/mL. In addition, the “MIC S2 = S. aureus 33591” value in data set [4] was in the range of 2 to 4 µg/mL.
In the case of `C#CCCCCCCCCCOc1ccc(-c2nc3ccc(-c4nc5ccc(N6CCN(C)CC6)cc5[nH]4)cc3[nH]2)cc1` [DPA 153, 6-(4-methylpiperazin-1-yl)-2′-(4-(undec-10-ynyloxy)phenyl)-1H,3′H-2,5′-bibenzo[d]imidazole], the melting point – broadly, the temperature of the solid-liquid transition – lay in the range of 170 to 175 °C. Besides, the IC50 with DU 145 cell line (Homo sapiens, DU-145) is more than 10 µM. The IC50 in data set [5] turned out to be 2.47 ± 0.06 µM.
Turning to `CN1CCN(c2ccc3[nH]c(-c4ccc5[nH]c(-c6ccc(O)cc6)nc5c4)nc3c2)CC1` [Hoechst 33258, reference compound], the “MIC S1 = S. aureus 29213” value in data set [1] is given as ≥32^ ^ μg/ml. Also, in data set [6], the “inhibition of human DNA topoisomerase II activities at 50 μM” value is recorded as “completely inhibit” and the IC50 amounted to 28.9 ± 4.45 µM. Besides, the “MIC S4 = P. aeruginosa 27853” value in data set [2] worked out at 16 µg/mL (≈ 37.7 µM). Moreover, in data set [3], the “MIC S3 = E. coli 25922” value came to 16 µg/mL (≈ 37.7 µM). Besides, the “MIC S2 = S. aureus 33591” value in data set [4] lay in the range of 16 to 32 µg/mL. For the same compound, in data set [5], the “concentration needed to completely inhibit the activities of E. coli DNA topoisomerase I” value is recorded as “approximately 20 μM” and the IC50 is 19.5 ± 1.32 µM.
In turn, `C#CCCCCOc1ccc(-c2nc3ccc(-c4nc5ccc(N6CCN(C)CC6)cc5[nH]4)cc3[nH]2)cc1` [DPA 152, 2′-(4-(hex-5-ynyloxy)phenyl)-6-(4-methylpiperazin-1-yl)-1H,3′H-2,5′-bibenzo[d]imidazole] returned a melting point of 210 to 220 °C. The MIC (as a rule, the least concentration at which growth counts as inhibited) in data set [1] was 2 to 4 µg/mL (≈ 3.96 to 7.93 µM). The “cytotoxicity relative to Hoechst 33242” value in the data set on DU 145 cell line (DU-145, 48 h) is “nearly twice as toxic as Hoechst 33242”. The IC50 in the data set on DU 145 cell line (Homo sapiens, DU-145) was found to be 2.12 ± 0.46 µM. Also, the minimum inhibitory concentration (MIC) in data set [2] was 16 µg/mL (≈ 31.7 µM). In addition, the minimal inhibitory concentration (MIC) in data set [3] was in the range of 8 to 16 µg/mL (≈ 15.9 to 31.7 µM). In addition, the MIC in data set [4] lay in the range of 2 to 4 µg/mL (≈ 3.96 to 7.93 µM). Further, the IC50 in data set [5] was determined as 4.57 ± 0.81 µM.
The compound `C#CCOCCCCOc1ccc(-c2nc3ccc(-c4nc5ccc(N6CCN(C)CC6)cc5[nH]4)cc3[nH]2)cc1` [DPA 154, 6-(4-methylpiperazin-1-yl)-2′-(4-(4-(prop-2-ynyloxy)butoxy)phenyl)-1H,3′H-2,5′-bibenzo[d]imidazole] came in with a melting point of 150 to 155 °C. Also, the MIC in data set [1] was in the range of 2 to 4 µg/mL (≈ 3.74 to 7.48 µM). In the data set with DU 145 cell line (Homo sapiens, DU-145), the IC50 came out at 2.79 ± 0.13 µM. In data set [2], the MIC was determined as 16 µg/mL (≈ 29.9 µM). Also, in data set [3], the MIC fell in the range of 8 to 16 µg/mL (≈ 15 to 29.9 µM). The MIC in data set [4] fell in the range of 2 to 4 µg/mL (≈ 3.74 to 7.48 µM). In data set [5], the IC50 stood at 6.63 ± 0.47 µM.
With `C#CCOc1ccc(-c2nc3ccc(-c4nc5ccc(N6CCN(C)CC6)cc5[nH]4)cc3[nH]2)cc1` [DPA 151, 6-(4-methylpiperazin-1-yl)-2′-(4-(prop-2-ynyloxy)phenyl)-1H,3′H-2,5′-bibenzo[d]imidazole], the MIC in data set [1] was 2 to 4 µg/mL (≈ 4.32 to 8.65 µM); in data set [3], 8 µg/mL (≈ 17.3 µM); in data set [4], 2 to 4 µg/mL (≈ 4.32 to 8.65 µM). The “inhibition of human DNA topoisomerase II activities at 50 μM” value in data set [6] is reported as “partially inhibit”. Besides, the IC50 worked out at 51.6 ± 2.5 µM in data set [6]; 3.24 ± 0.71 µM in the data set with DU 145 cell line (Homo sapiens, DU-145); 5.5 ± 0.5 µM in data set [5]. In addition, the “concentration needed to completely inhibit the activities of E. coli DNA topoisomerase I” value in data set [5] is listed as “approximately 5 μM”.
